The record followed here is patent publication US7781565B2 (priority 2006, dated 2010).

“Also recorded” adds a separate entry of the source.

This assay deals with NCI-60 cell lines. The format is cell-based, human.

Consider ARGSWRE, for which the “Cell Line the peptide is associated with (peptide recovered from phage library selection on this NCI-60 cell line)” value was “TK-10 Renal”.
With PGGLVPG, the “Cell Line (NCI-60 cell line the peptide is associated with)” value was “HT-29 Colon”.
For RLAVSGY, the “Cell Line with which the peptide (and its tripeptide motif) is associated” value (“Cell Line with which the peptide” for short) was “H522-Lung”.
In the case of TLGVLVT, the “Cell Line the peptide is associated with (peptide recovered from phage library selection on this NCI-60 cell line)” value is recorded as “NCI/ADR-RES Breast”.
On the same count and under the same terms, the same measure for LRVGHAG: “SN12C Renal”.
In the case of FRAGVSH, the “Cell Line (NCI-60 cell line the peptide is associated with)” value is “HCT-116 Colon”.
On to NSKPLVS, for which the “Cell Line the peptide is associated with (peptide recovered from phage library selection on this NCI-60 cell line)” value is reported as “T-47D Breast”.
As for TGRSSFW, the “Cell Line the peptide is associated with (peptide recovered from phage library selection on this NCI-60 cell line)” value was “TK-10 Renal”.
In the case of WRLLRRQ, the “Cell Line with which the peptide” value is listed as “SR Leukemia”.
As to LWFELVS, the “Cell Line the peptide is associated with (peptide recovered from phage library selection on this NCI-60 cell line)” value is “MCF-7 Breast”.
For SHTAGGG, the “Cell Line (NCI-60 cell line the peptide and its motif are associated with)” value is “PC3 Prostate”.
Turning to GRGSGGF, the “Cell Line (NCI-60 cell line the peptide is associated with)” value is reported as “LOX-IMVI Melanoma”.
SGVSRGQ: the “Cell Line with which the peptide” value is on record as “Hop-92-Lung”.
In the case of SGVRLTG, the “Cell Line (NCI-60 cell line the peptide is associated with)” value is “HT-29 Colon”.
Take HAGSRAS: the “Cell Line (NCI-60 cell line the peptide and its motif are associated with)” value was “IGROV1 Ovarian”.
Consider LGLRGWT, for which the “Cell Line the peptide is associated with (peptide recovered from phage library selection on this NCI-60 cell line)” value is listed as “ACHN Renal”.
On to AGGVRDL, for which the “Cell Line (NCI-60 cell line the peptide and its motif are associated with)” value is “PC3 Prostate”.
Take RSSLGLP: the “Cell Line with which the peptide” value is listed as “H226-Lung”.
On the same count and under the same terms, the same measure for VGRGRLH: “EKVX-Lung”.
Turning to GRSSVSD, the “Cell Line (NCI-60 cell line the peptide and its motif are associated with)” value is “OVCAR-8 Ovarian”.
In the case of LGGGGLL, the “Cell Line (NCI-60 cell line the peptide is associated with)” value was “KM-12C Colon”.
Regarding GAHGLVR, the “Cell Line with which the peptide” value is “SR Leukemia”.
With ALARGSG, the “Cell Line (NCI-60 cell line the peptide and its motif are associated with)” value is given as “SK-MEL-2 Melanoma”.
As to DRYMLRS, the “Cell Line with which the peptide” value is listed as “H460-Lung”.
As to GHGSGSR, the “Cell Line the peptide is associated with (peptide recovered from phage library selection on this NCI-60 cell line)” value is given as “ACHN Renal”.
Still for that read-out and setting: the same measure for GSGSSSR: “TK-10 Renal”.
SGGAVHF: the “Cell Line with which the peptide” value is given as “SR Leukemia”.
Same read-out and setting: as for GAGGMAR, the entry is “RPMI-8226-Leukemia”.
As to AVGVSAA, the “Cell Line the peptide is associated with (peptide recovered from phage library selection on this NCI-60 cell line)” value was “MDA-MB-231 Breast”.
For SLRSGIV, the “Cell Line with which the peptide” value is on record as “EKVX-Lung”.
On to AASGSYY, for which the “Cell Line (NCI-60 cell line the peptide is associated with)” value is “HT-29 Colon”.
As for IYGGLVI, the “Cell Line (NCI-60 cell line the peptide and its motif are associated with)” value was “SK-MEL-5 Melanoma”.
Regarding WTERASA, the “Cell Line (NCI-60 cell line the peptide is associated with)” value was “HCT-15 Colon”.
For RGRGSTL, the “Cell Line the peptide is associated with (peptide recovered from phage library selection on this NCI-60 cell line)” value was “MDA-MB-435-Breast”.
STEGGGL: the “Cell Line with which the peptide” value was “Molt-4-Leukemia”.
Turning to DWWAGVR, the “Cell Line with which the peptide” value was “CCRF-CEM Leukemia”.
As to GLLSGGT, the “Cell Line (NCI-60 cell line the peptide and its motif are associated with)” value is “IGROV1 Ovarian”.
As for LRYNLRS, the “Cell Line with which the peptide” value is recorded as “RPMI-8226-Leukemia”.
Consider VVGGRRT, for which the “Cell Line the peptide is associated with (peptide recovered from phage library selection on this NCI-60 cell line)” value is given as “HS 578 T Breast”.
With GGLRGVR, the “Cell Line with which the peptide” value is on record as “A549-Lung”.
Turning to WYGGRGN, the “Cell Line (NCI-60 cell line the peptide and its motif are associated with)” value is given as “OVCAR-4 Ovarian”.
Consider PKAGRGS, for which the “Cell Line with which the peptide” value is “Hop-62-Lung”.
Take TAGRLEV: the “Cell Line the peptide is associated with (peptide recovered from phage library selection on this NCI-60 cell line)” value is “RXF393 Renal”.
As to AARGELR, the “Cell Line (NCI-60 cell line the peptide and its motif are associated with)” value is reported as “UACC62 Melanoma”.
For QAGSFLR, the “Cell Line with which the peptide” value is “EKVX-Lung”.
Regarding AARAVWG, the “Cell Line the peptide is associated with (peptide recovered from phage library selection on this NCI-60 cell line)” value is “RXF393 Renal”.
As for VAASVRE, the “Cell Line (NCI-60 cell line the peptide and its motif are associated with)” value is reported as “OVCAR-3 Ovarian”.
Same read-out and setting: as for EADPGAV, the entry is “UACC 257 Melanoma”.
For the substance VYYALRS, the “Cell Line (NCI-60 cell line the peptide is associated with)” value is on record as “KM-12C Colon”.
AGSGFPF: the “Cell Line (NCI-60 cell line the peptide is associated with)” value was “HT-29 Colon”.
With SFWWLRS, the “Cell Line the peptide is associated with (peptide recovered from phage library selection on this NCI-60 cell line)” value is reported as “TK-10 Renal”.
With GRLSRAP, the “Cell Line (NCI-60 cell line the peptide and its motif are associated with)” value is given as “OVCAR-4 Ovarian”.
The same measure, in the same setting: as for GRMLVSG, the entry is “OVCAR-4 Ovarian”.
On to AGIARGG, for which the “Cell Line with which the peptide” value is “Hop-92-Lung”.
Take ARGTMTG: the “Cell Line the peptide is associated with (peptide recovered from phage library selection on this NCI-60 cell line)” value is listed as “ACHN Renal”.
As for AARGVMV, the “Cell Line (NCI-60 cell line the peptide and its motif are associated with)” value is given as “SK-MEL-2 Melanoma”.
The same measure, in the same setting: as for RGVSGRL, the entry is “SK-MEL-28 Melanoma”; as for AGLGLLD, “SK-OV-3-3 Ovarian”.
In the case of IAASYRG, the “Cell Line (NCI-60 cell line the peptide is associated with)” value is “LOX-IMVI Melanoma”.
Regarding RASCFWD, the “Cell Line the peptide is associated with (peptide recovered from phage library selection on this NCI-60 cell line)” value is “SN12C Renal”.
Take LSMLRSA: the “Cell Line with which the peptide” value is given as “H322-Lung”.
Consider NRSSHCG, for which the “Cell Line (NCI-60 cell line the peptide and its motif are associated with)” value was “M14 Melanoma”.
Same read-out and setting: the same measure for VGSTRSS: “SK-MEL-28 Melanoma”.
Consider NAASLPS, for which the “Cell Line with which the peptide” value is “SR Leukemia”.
In the case of SQSGGRH, the “Cell Line with which the peptide” value is “Molt-4-Leukemia”.
As for IHRGVWG, the “Cell Line (NCI-60 cell line the peptide and its motif are associated with)” value is given as 786-0 Renal.
For the substance RLLSEGY, the “Cell Line (NCI-60 cell line the peptide is associated with)” value was “SNB-75 CNS”.
Regarding SRLRAGS, the “Cell Line the peptide is associated with (peptide recovered from phage library selection on this NCI-60 cell line)” value is reported as “T-47D Breast”.
For the substance AGRTGVG, the “Cell Line with which the peptide” value is “SR Leukemia”.
In the case of SGSSVRY, the “Cell Line (NCI-60 cell line the peptide is associated with)” value is given as “SNB-75 CNS”.
For AGRGISQ, the “Cell Line (NCI-60 cell line the peptide and its motif are associated with)” value is given as “UACC62 Melanoma”.
Regarding DVRGRVW, the “Cell Line with which the peptide” value is recorded as “H460-Lung”.
Turning to GEGGSGG, the “Cell Line (NCI-60 cell line the peptide and its motif are associated with)” value was “OVCAR-5 Ovarian”.
With FAWGGRG, the “Cell Line with which the peptide” value is listed as “K-562-Leukemia”.
As for AGLALTV, the “Cell Line (NCI-60 cell line the peptide is associated with)” value is recorded as “MALME-3M Melanoma”.
ATGRVLG: the “Cell Line with which the peptide” value is recorded as “Molt-4-Leukemia”.
Regarding TFRGAGV, the “Cell Line the peptide is associated with (peptide recovered from phage library selection on this NCI-60 cell line)” value is given as “MDA-MB-231 Breast”.
Take ASGLVVT: the “Cell Line (NCI-60 cell line the peptide is associated with)” value was “SNB-75 CNS”.
With LGMGRGV, the “Cell Line the peptide is associated with (peptide recovered from phage library selection on this NCI-60 cell line)” value is recorded as “SN12C Renal”.
As to AGLSGSQ, the “Cell Line with which the peptide” value was “RPMI-8226-Leukemia”.
For the substance DGEGAGL, the “Cell Line (NCI-60 cell line the peptide is associated with)” value was “SNB-75 CNS”.
Consider SSGPRSS, for which the “Cell Line with which the peptide” value was “Hop-62-Lung”.
Regarding LHAGSSV, the “Cell Line the peptide is associated with (peptide recovered from phage library selection on this NCI-60 cell line)” value is “MDA-MB-231 Breast”.
With IYPGAVL, the “Cell Line (NCI-60 cell line the peptide and its motif are associated with)” value is recorded as “OVCAR-5 Ovarian”.
On the same count and under the same terms, as for CVGLGCH, the entry is “OVCAR-4 Ovarian”; as for RVGTLRV, “SK-OV-3-3 Ovarian”.
Regarding NELRVCR, the “Cell Line the peptide is associated with (peptide recovered from phage library selection on this NCI-60 cell line)” value is “SN12C Renal”.
Turning to GGYWLRS, the “Cell Line (NCI-60 cell line the peptide and its motif are associated with)” value is on record as “M14 Melanoma”.
As to HAWDRGV, the “Cell Line the peptide is associated with (peptide recovered from phage library selection on this NCI-60 cell line)” value is “MDA-MB-231 Breast”.
For the substance NYGSSFH, the “Cell Line with which the peptide” value is given as “Hop-62-Lung”.
Turning to GLRPHGA, the “Cell Line (NCI-60 cell line the peptide and its motif are associated with)” value is given as “UACC 257 Melanoma”.
For the substance LCDAGPS, the “Cell Line (NCI-60 cell line the peptide is associated with)” value is on record as “HCT-116 Colon”.
For the substance VRPRAVL, the “Cell Line (NCI-60 cell line the peptide and its motif are associated with)” value is reported as “UACC62 Melanoma”.
The same measure, in the same setting: as for SPGRVAD, the entry is “IGROV1 Ovarian”.
In the case of ALVSVAG, the “Cell Line (NCI-60 cell line the peptide is associated with)” value is “SF-295 CNS”.
In the case of SVVRRGS, the “Cell Line the peptide is associated with (peptide recovered from phage library selection on this NCI-60 cell line)” value is “ACHN Renal”.
Regarding RAAGRVG, the “Cell Line (NCI-60 cell line the peptide is associated with)” value is recorded as “HCT-15 Colon”.
Take GGVAGVS: the “Cell Line with which the peptide” value was “A549-Lung”.
Take RKGSGTA: the “Cell Line the peptide is associated with (peptide recovered from phage library selection on this NCI-60 cell line)” value was “BT-549 Breast”.
As to LSKGGSE, the “Cell Line the peptide is associated with (peptide recovered from phage library selection on this NCI-60 cell line)” value is “T-47D Breast”.
On to DAGGMDL, for which the “Cell Line (NCI-60 cell line the peptide is associated with)” value is given as “HT-29 Colon”.
In the case of LGGARGV, the “Cell Line the peptide is associated with (peptide recovered from phage library selection on this NCI-60 cell line)” value is given as “MDA-MB-231 Breast”.
On to GGLKVWR, for which the “Cell Line (NCI-60 cell line the peptide and its motif are associated with)” value is on record as “PC3 Prostate”.
The same measure, in the same setting: as for AAGAGWR, the entry is “OVCAR-4 Ovarian”; as for AVSGRSL, “M14 Melanoma”.
With AGVFAVS, the “Cell Line with which the peptide” value is on record as “HL-60-Leukemia”.
In the case of ARRGVLG, the “Cell Line (NCI-60 cell line the peptide is associated with)” value was “COLO-205-Colon”.
Take RGAVAFE: the “Cell Line with which the peptide” value is “SR Leukemia”.
Turning to AWRHAGG, the “Cell Line (NCI-60 cell line the peptide is associated with)” value is given as “SNB-19 CNS; also recorded: SF-539 CNS”.
Same read-out and setting: the same measure for DLGSVQH: “HT-29 Colon”.
Regarding LAAGGEL, the “Cell Line with which the peptide” value is given as “RPMI-8226-Leukemia”.
As for WDGSSVS, the “Cell Line the peptide is associated with (peptide recovered from phage library selection on this NCI-60 cell line)” value is “SN12C Renal”.
As for GEHLGGS, the “Cell Line with which the peptide” value is listed as “SR Leukemia”.
